The term IC50 denotes the concentration that inhibits the measured activity by half.

Each structure is given as a SMILES string. Structures can show the parent of a compound that is named as a salt. Where two headings read alike, the source gives them in different places. Numbered stars: 1 amine (or outer) side, 2 acyl side, 3 side chain; on linkers, the order of the positions; unused ones are H or OH. Square brackets hold non-standard residues; d marks the D form. Peptide text beside a SMILES is read from it. * marks the point of attachment. dPip(4-aza,4-Cbz) = O=C(O)[C@H]1CN(C(=O)OCc2ccccc2)CCN1; X2 = O=C(OCc1ccccc1)N1CCN([*:1])[C@H](C(=O)[*:2])C1; X5 = CC(C)(C)OC(=O)CN1CCN([*:1])[C@H](C(=O)[*:2])C1; X4 = O=C([C@@H](Cc1cn(COCc2ccccc2)cn1)N[*:1])[*:2]; d2Nal = N[C@H](Cc1ccc2ccccc2c1)C(=O)O; Ethyl(2-morpholino) = C1CN(CC*)CCO1; dNMeY = CN[C@H](Cc1ccc(O)cc1)C(=O)O; Pip(4-aza) = O=C(O)[C@@H]1CNCCN1; dNMeF = CN[C@H](Cc1ccccc1)C(=O)O; Pip = O=C(O)[C@@H]1CCCCN1; dPip = O=C(O)[C@H]1CCCCN1; Orn = NCCC[C@H](N)C(=O)O; dNMeA = CN[C@H](C)C(=O)O; Boc = CC(C)(C)OC(=O)*; Bn = c1ccc(C*)cc1; tBu = CC(C)(C)*

The target of assay [1] is T1, AVP-V2 sites (Rattus norvegicus, UniProt Q00788).
T1 construct: male rat liver (AVP-V1 sites) or kidney medulla (AVP-V2 sites); from tissue; host or cells: male rat kidney medulla, crude membranes
T1 sequence (Q00788 whole entry): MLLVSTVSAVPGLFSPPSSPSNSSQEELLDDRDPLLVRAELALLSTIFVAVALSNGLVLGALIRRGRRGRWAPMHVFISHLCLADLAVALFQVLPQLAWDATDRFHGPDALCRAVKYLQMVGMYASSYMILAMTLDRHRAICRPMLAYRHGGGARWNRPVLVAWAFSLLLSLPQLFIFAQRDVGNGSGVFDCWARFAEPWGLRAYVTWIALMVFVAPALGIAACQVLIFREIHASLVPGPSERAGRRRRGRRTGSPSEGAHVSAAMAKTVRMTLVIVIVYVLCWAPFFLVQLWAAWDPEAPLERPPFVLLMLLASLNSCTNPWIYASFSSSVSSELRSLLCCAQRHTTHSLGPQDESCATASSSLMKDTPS
As to the kind of experiment: [^3 H]AVP binding to crude membrane preparation of male rat kidney medulla (AVP-V2 sites). As to conditions: for inhibition at 10 µM: @ 10,000 (nM). On the procedure:
(§1) Nonspecific binding (5-10% of the total binding) was determined using 10 μM unlabeled AVP, and the binding reaction was terminated by filtration as described above for the [^3 H]OT binding assay.

For assay [2], the target named is T2, AVP-V1 sites (Rattus norvegicus, UniProt P30560).
T2 construct: crude membrane preparation of male rat liver (AVP-V1 sites); from tissue; host or cells: male rat liver, crude membranes
T2 sequence (P30560 whole entry): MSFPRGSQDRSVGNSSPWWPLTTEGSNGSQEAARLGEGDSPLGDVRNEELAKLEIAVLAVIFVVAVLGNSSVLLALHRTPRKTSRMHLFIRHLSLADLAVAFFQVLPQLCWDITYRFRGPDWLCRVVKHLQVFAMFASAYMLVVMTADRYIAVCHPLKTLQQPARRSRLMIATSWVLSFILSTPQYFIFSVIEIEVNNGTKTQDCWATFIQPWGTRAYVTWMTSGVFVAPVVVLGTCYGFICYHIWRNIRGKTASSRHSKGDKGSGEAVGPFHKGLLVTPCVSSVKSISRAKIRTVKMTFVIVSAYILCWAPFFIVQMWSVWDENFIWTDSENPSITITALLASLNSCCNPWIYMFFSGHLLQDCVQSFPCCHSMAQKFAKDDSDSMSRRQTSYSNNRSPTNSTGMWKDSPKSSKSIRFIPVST
As to the kind of experiment: [^3 H]AVP binding to crude membrane preparation of male rat liver (AVP-V1 sites). On the procedure: as §1

Assay [3] concerns the target T3, uterine OT receptors (Rattus norvegicus, UniProt P70536).
T3 construct: from tissue; host or cells: uterus of DES-treated rats, crude membranes
T3 sequence (P70536 1-388): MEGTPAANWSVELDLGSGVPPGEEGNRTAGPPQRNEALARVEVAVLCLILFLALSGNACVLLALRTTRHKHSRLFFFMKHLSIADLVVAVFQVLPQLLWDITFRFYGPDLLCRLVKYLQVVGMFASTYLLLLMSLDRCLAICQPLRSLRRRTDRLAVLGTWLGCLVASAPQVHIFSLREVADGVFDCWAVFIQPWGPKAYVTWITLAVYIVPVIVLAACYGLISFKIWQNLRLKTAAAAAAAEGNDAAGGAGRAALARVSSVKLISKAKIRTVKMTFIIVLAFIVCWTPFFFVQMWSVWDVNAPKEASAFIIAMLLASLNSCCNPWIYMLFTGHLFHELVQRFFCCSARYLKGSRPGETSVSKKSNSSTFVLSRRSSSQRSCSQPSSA
The experiment in a line: [^3 H]OT binding to uterine OT receptors, crude membrane preparation of uteri from DES-treated rats. The following applies: for inhibition at 1 µM: @ 1,000 (nM). On the procedure:
Competition studies were conducted at equilibrium (60 minutes; 22° C.) using 1 nM [^3 H]OT in the following assay buffer: 50 mM Tris-HCl, 5 mM MgCl2, and 0.1% BSA, pH 7.4.

The mark [4] stands for this setting: rat kidney medulla membranes, 2 nM [^3 H]AVP, read-out: Receptor Binding Results IC50 (nM) [^3 H]-AVP-V2.
Where [5] appears, read: Receptor Binding Results IC50 (nM) [^3 H]-AVP-V1.
Where [6] appears, read: 1 h, read-out: [^3 H]OT: percent inhibition of radioligand at the given concentration.
Setting [7] is: 0.5 h, read-out: [^3 H]-AVP-V2: percent inhibition of radioligand at the given concentration.
The mark [8] stands for this setting: Receptor Binding Results IC50 (nM) [^3 H]OT.
Where [9] appears, read: rat uterus membranes, 1 nM [^3 H]OT, read-out: Receptor Binding Results IC50 (nM) [^3 H]OT.

As for `CC[C@H](C)[C@@H]1NC(=O)[C@@H](Cc2ccc(OC(C)(C)C)cc2)NC(=O)[C@@H]2CCCN2C(=O)[C@@H](Cc2ccccc2)N(C)C(=O)[C@H](CCCCNC(=O)OC(C)(C)C)NC(=O)[C@H]2CCCCN2C1=O` [Example 144, C-[D-(O-t-Butyl)Tyrosiniyl-L-isoleucyl-D-pipecolyl-L(N-t-butyloxycarbonyl)lysyl-D-(N-methyl)phenylalanyl-L-prolyl]] (cyclo(I[dPip]K(Boc)[dNMeF]P[dY](tBu))), the IC50 is 10000 nM in assay [1] (setting [4]) and > 10000 nM in assay [2] (setting [5]). Moreover, the inhibition at 1 µM in assay [3] (setting [6]) stood at 67%.
Take `CC[C@H](C)[C@@H]1NC(=O)[C@@H](Cc2ccccc2)NC(=O)[C@@H]2CCCN2C(=O)[C@@H](Cc2cn(COCc3ccccc3)cn2)NC(=O)[C@@H]2CNCCN2C(=O)[C@H]2CCCCN2C1=O` [Example 176, c-[D-Phenylalanyl-L-isoleucinyl-D-pipecolyl-L-piperazin-2-yl-D-histidinyl(BOM)-L-prolyl]] (cyclo([dF]I[dPip][Pip(4-aza)][X4]P)): in assay [1] (setting [7]), the inhibition at 10 µM is 81%. The same molecule displayed an IC50 in assay [2] (setting [5]) of 10000 nM. Besides, in assay [3] (setting [6]), the inhibition at 1 µM is 80%.
Consider `CC[C@H](C)[C@@H]1NC(=O)[C@@H](Cc2ccccc2)NC(=O)[C@@H]2CCCN2C(=O)[C@@H](C)N(C)C(=O)[C@@H]2CCCCN2C(=O)[C@H]2CCCCN2C1=O` [Example 5, Cyclo[D-phenyalanyl-L-isoleucyl-D-pipecolyl-L-pipecolyl-D-(N^α methyl)alanyl-L-prolyl]] (cyclo(I[dPip][Pip][dNMeA]P[dF])), for which the IC50 was > 10000 nM in assay [1] (setting [4]), > 10000 nM in assay [2] (setting [5]) and 930 nM in assay [3] (setting [8]).
`CC[C@H](C)[C@@H]1NC(=O)[C@@H](Cc2ccccc2)NC(=O)[C@@H]2CCCN2C(=O)[C@@H](Cc2ccc(OCCN3CCOCC3)cc2)N(C)C(=O)[C@@H]2CCCCN2C(=O)[C@H]2CCCCN2C1=O` [Example 50] (cyclo(I[dPip][Pip][dNMeY](Ethyl(2-morpholino))P[dF])): the IC50 in assay [1] (Receptor Binding Results IC50 (nM) [^3 H]-AVP-V2) is > 1000 nM; in assay [2] (setting [5]), > 10000 nM; in assay [3] (setting [9]) it was 310 nM.
Regarding `CC[C@H](C)[C@@H]1NC(=O)[C@@H](Cc2c[nH]c3ccccc23)NC(=O)[C@@H]2CCCN2C(=O)[C@@H](Cc2ccccc2)N(C)C(=O)[C@@H]2CN(CC(=O)OC(C)(C)C)CCN2C(=O)[C@H]2CCCCN2C1=O` [Example 180, C-[D-Tryptophanyl-L-isoleucinyl-D-pipecolyl-L-piperazin-2-yl (4-t-butylacetyl)-D-(N^α -Me)phenylalanyl-L-prolyl]] (cyclo([dW]I[dPip][X5][dNMeF]P)), in assay [1] (setting [7]), the inhibition at 10 µM was 79%. Besides, the “[^3 H]-AVP-V1: percent inhibition of radioligand at the given concentration” value in assay [2] (@ 10,000 (nM)) was found to be 44%. For the same molecule, the IC50 in assay [3] (setting [9]) came to 150 nM.
For the molecule `CC[C@H](C)[C@@H]1NC(=O)[C@@H](Cc2c[nH]c3ccccc23)NC(=O)[C@@H]2CCCN2C(=O)[C@@H](Cc2c[nH]cn2)NC(=O)[C@H](Cc2c[nH]cn2)NC(=O)[C@H]2CCCN2C1=O` [Example 94, c-[D-Tryptophanyl-L-isoleucinyl-D-prolyl-L-histidyl-D-histidyl-L-prolyl]] (cyclo(H[dH]P[dW]I[dP])), the IC50 was > 10000 nM in assay [1] (setting [4]) and 10000 nM in assay [2] (setting [5]). The inhibition at 1 µM in assay [3] (setting [6]) came out at 64%.
As to `CC[C@H](C)[C@@H]1NC(=O)[C@@H](Cc2c[nH]c3ccccc23)NC(=O)[C@@H]2CCCN2C(=O)[C@@H](Cc2ccc(OCc3ccccc3)cc2)N(C)C(=O)[C@@H]2CCCCN2C(=O)[C@H]2CCCCN2C1=O` [Example 33, Cyclo[D-tryptophanyl-L-isoleucyl-D-pipecolyl-L-pipecolyl-D-(N^α methyl-O-benzyl)tyrosyl-L-prolyl]] (cyclo(I[dPip][Pip][dNMeY](Bn)P[dW])), the IC50 is > 10000 nM in assay [1] (setting [4]), > 10000 nM in assay [2] (setting [5]) and 100 nM in assay [3] (setting [9]).
For `CC[C@H](C)[C@@H]1NC(=O)[C@@H](Cc2ccc3ccccc3c2)NC(=O)[C@@H]2CCCN2C(=O)[C@@H](Cc2c[nH]cn2)NC(=O)[C@@H]2CN(C(=O)OCc3ccccc3)CCN2C(=O)[C@H]2CCCCN2C1=O` [Example 158, c-[D-2-Naphthylalanyl-L-isoleucyl-D-pipecolyl-L-piperazin-2-yl-(4-carbobenzyloxy)-D-histidyl-L-prolyl]] (cyclo(I[dPip][X2][dH]P[d2Nal])), the inhibition at 1 µM in assay [1] (0.5 h, @ 1,000 (nM), read-out: [^3 H]-AVP-V2: percent inhibition of radioligand at the given concentration) was 68%. In addition, in assay [2] (setting [5]), the IC50 was > 1000 nM. For the same molecule, the inhibition at 0.01 µM in assay [3] (1 h, @ 10 (nM), read-out: [^3 H]OT: percent inhibition of radioligand at the given concentration) came to 60%.
In the case of `CC[C@H](C)[C@@H]1NC(=O)[C@@H](Cc2ccc(OCc3ccccc3)cc2)NC(=O)[C@@H]2CCCN2C(=O)[C@@H](Cc2ccccc2)N(C)C(=O)[C@H](CCCCN)NC(=O)[C@H]2CCCCN2C1=O` [Example 145, C-[D-(O-Benzyl)Tyrosyl-L-isoleucyl-D-pipecolyl-L-lysyl-D-(N-methyl)phenylalanyl-L-prolyl]] (cyclo(I[dPip]K[dNMeF]P[dY](Bn))), the IC50 is 10000 nM in assay [1] (setting [4]) and > 10000 nM in assay [2] (setting [5]). Moreover, the inhibition at 1 µM in assay [3] (setting [6]) was determined as 9%.
Regarding `CC[C@H](C)[C@@H]1NC(=O)[C@@H](Cc2c[nH]c3ccccc23)NC(=O)[C@@H]2CCCN2C(=O)[C@@H](Cc2ccccc2)NC(=O)[C@H]2CN(C(=O)OCc3ccccc3)CCN2C(=O)[C@H]2CCCCN2C1=O` [Example 90, c-[D-Tryptophanyl-L-isoleucinyl-D-pipecolyl-D-piperazin-2-yl(4-Cbz)-D-phenylalanyl-L-prolyl]] (cyclo(I[dPip][dPip(4-aza,4-Cbz)][dF]P[dW])), the IC50 in assay [1] (setting [4]) and in assay [2] (setting [5]) was > 10000 nM each time. In assay [3] (1 h, @ 100 (nM), read-out: [^3 H]OT: percent inhibition of radioligand at the given concentration), the inhibition at 0.1 µM came out at 59%.
As for `CC[C@H](C)[C@@H]1NC(=O)[C@@H](Cc2c[nH]cn2)NC(=O)[C@@H]2CCCN2C(=O)[C@@H](Cc2ccccc2)N(C)C(=O)[C@@H]2CCCCN2C(=O)[C@H]2CCCCN2C1=O` [Example 4, Cyclo[D-histidyl-L-isoleucyl-D-pipecolyl-L-pipecolyl-D-(N^α -methyl)-phenylalanyl-L-prolyl]] (cyclo(I[dPip][Pip][dNMeF]P[dH])), the 50% inhibitory concentration (IC50) in assay [1] (setting [4]), in assay [2] (setting [5]) and in assay [3] (setting [9]) was > 10000 nM each time.
In the case of `CC[C@H](C)[C@@H]1NC(=O)[C@@H](Cc2ccccc2)NC(=O)[C@@H]2CCCN2C(=O)[C@@H](Cc2ccccc2)NC(=O)[C@@H]2CCCCN2C(=O)[C@H]2CN(C(=O)OCc3ccccc3)CCN2C1=O` [Example 83, c-[D-Phenylalanyl-L-isoleucinyl-D-piperazin-2-yl-(4-Cbz)-L-pipecolyl-D-phenylalanyl-L-prolyl]] (cyclo(I[dPip(4-aza,4-Cbz)][Pip][dF]P[dF])), the IC50 in assay [1] (setting [4]) came out at 10000 nM; in assay [2] (setting [5]) it was 10000 nM; in assay [3] (setting [9]), 940 nM.
For `CC[C@H](C)[C@@H]1NC(=O)[C@@H](Cc2ccccc2)NC(=O)[C@@H]2CCCN2C(=O)[C@@H](Cc2cnc[nH]2)NC(=O)[C@@H]2CCCCN2C(=O)[C@H]2CCCCN2C1=O` [Example 3] (cyclo(I[dPip][Pip][dH]P[dF])), the 50% inhibitory concentration (IC50) in assay [1] (setting [4]) was 19000 nM; in assay [2] (read-out: Receptor Binding Results IC50 (nM) [^3 H]-AVP-V1) it was 7300 nM; in assay [3] (setting [9]), 88 nM.
Turning to `CC[C@H](C)[C@@H]1NC(=O)[C@@H](Cc2c[nH]c3ccccc23)NC(=O)[C@@H]2CCCN2C(=O)[C@@H](Cc2c[nH]cn2)NC(=O)[C@H](CCCNC(=O)OC(C)(C)C)NC(=O)[C@H]2CCCCN2C1=O` [Example 129, c-[D-Tryptophanyl-L-isoleucyl-D-pipecolyl-(N^δ -Boc)-L-ornithyl-D-histidyl-L-prolyl] acetate salt] (cyclo(I[dPip][Orn](Boc)[dH]P[dW])), the IC50 in assay [1] (setting [4]) was 10000 nM; in assay [2] (setting [5]) it was 10000 nM; in assay [3] (setting [9]), 100 nM.
Take `CC[C@H](C)[C@@H]1NC(=O)[C@@H](Cc2ccccc2)NC(=O)[C@@H]2CCCN2C(=O)[C@@H](Cc2ccccc2)N(C)C(=O)[C@@H]2CCCN2C(=O)[C@H]2CCCCN2C1=O` [Example 7, Cyclo[D-phenylalanyl-L-isolelucyl-D-pipecolyl-L-propyl-D-(N^α Methyl)phenyl-L-prolyl]] (cyclo(I[dPip]P[dNMeF]P[dF])): the IC50 was > 10000 nM in assay [1] (setting [4]), > 10000 nM in assay [2] (setting [5]) and 350 nM in assay [3] (setting [8]).

The values are drawn from US5225528A, “Cyclic hexapeptide oxytocin antagonists” (priority 1990, dated 1993).
